Values belong to the compound of their own block, whether it stands above or below them.
How the values were obtained:
[1] = tested on: RAJI; assay: Cell proliferation assay RAJI; format: cell-based; conditions: Homo sapiens, Burkitt's lymphoma, method of Example 5
Method: (§1) MCF7 cells were seeded in multi well plates at a density optimized to give approximately 90% confluent cells at the time of harvest. Cells were incubated for 24 hours before addition of compound. Compounds were diluted in complete medium and added to the plates in duplicates. The final concentration of DMSO was maximum 0.5%. Complete medium used was DMEM with GlutaMAX containing 10% FBS and pen/strep.
(§2) 120 hours after addition of compounds, the plates were harvested and analyzed by ATPlite 1 Step (Perkin Elmer, cat no 6016739) according to the manufactures recommendation.
(§3) The assays were performed by the method of Example 5 by seeding the relevant cell line at a density optimized to give approximately 90% confluent cells at the time of harvest.

[2] = tested on: MM1R; assay: Cell proliferation assay MM1R; format: cell-based; conditions: Homo sapiens, MM.1R, Myeloma, method of Example 5
Method: as §1, §2, §3

[3] = tested on: KARPAS620; assay: Cell proliferation assay KARPAS620; format: cell-based; conditions: Homo sapiens, Karpas-620; KARPAS620, Plasma cell leukemia; method of Example 5
Method: as §1, §2, §3

[4] = tested on: HEPG2; assay: Cell proliferation assay HEPG2; format: cell-based; conditions: Homo sapiens; HEPG2, Hepatocellular carcinoma; method of Example 5
Method: as §1, §2, §3

[5] = tested on: RPMI8226; assay: Cell proliferation assay RPMI8226; format: cell-based; conditions: Homo sapiens, RPMI-8226; RPMI8226, Myeloma; method of Example 5
Method: as §1, §2, §3

[6] = tested on: OPM2; assay: Cell proliferation assay OPM2; format: cell-based; conditions: Homo sapiens, OPM-2; OPM2, Myeloma; method of Example 5
Method: as §1, §2, §3

[7] = tested on: MIA PACA2; assay: Cell proliferation assay MIA PACA2; format: cell-based; conditions: Homo sapiens, MIA PaCa-2; MIA PACA2, Pancreas epithelial carcinoma; method of Example 5
Method: as §1, §2, §3

[8] = tested on: MDA MB 231; assay: Cell proliferation assay MDA MB 231; format: cell-based; conditions: Homo sapiens; MDA MB 231, Breast carcinoma; method of Example 5
Method: as §1, §2, §3

[9] = tested on: BT474; assay: Cell proliferation assay BT474; format: cell-based; conditions: Homo sapiens, BT-474; BT474, Mammary ductal carcinoma; method of Example 5
Method: as §1, §2, §3

[10] = tested on: ARPE19; assay: Cell proliferation assay ARPE19; format: cell-based; conditions: Homo sapiens, ARPE-19; ARPE19, Retinal pigmented epithelium; method of Example 5
Method: as §1, §2, §3

[11] = tested on: MOLP2; assay: Cell proliferation assay MOLP2; format: cell-based; conditions: Homo sapiens, MOLP-2; MOLP2, Myeloma; method of Example 5
Method: as §1, §2, §3

[12] = tested on: U2OS; assay: Cell proliferation assay U2OS; format: cell-based; conditions: Homo sapiens, Osteosarcoma, method of Example 5
Method: as §1, §2, §3

[13] = tested on: NALM6; assay: Cell proliferation assay NALM6; format: cell-based; conditions: Homo sapiens, NALM-6; NALM6, Lymphoblastic leukemia; method of Example 5
Method: as §1, §2, §3

[14] = tested on: MM1S; assay: Cell proliferation assay MM1S; format: cell-based; conditions: Homo sapiens, MM1.S, Myeloma, method of Example 5
Method: as §1, §2, §3

[15] = tested on: EJM; assay: Cell proliferation assay EJM; format: cell-based; conditions: Homo sapiens, Myeloma, method of Example 5
Method: as §1, §2, §3

[16] = tested on: SU DHL6; assay: Cell proliferation assay SU DHL6; format: cell-based; conditions: Homo sapiens, SU-DHL-6; SU DHL6, B cell lymphoma; method of Example 5
Method: as §1, §2, §3

[17] = tested on: L363; assay: Cell proliferation assay L363; format: cell-based; conditions: Homo sapiens, L-363; L363, Plasma cell leukemia; method of Example 5
Method: as §1, §2, §3

[18] = tested on: L1236; assay: Cell proliferation assay L1236; format: cell-based; conditions: Homo sapiens, L-1236; L1236, Hodgkin's lymphoma; method of Example 5
Method: as §1, §2, §3

[19] = tested on: OVCAR-3; assay: Cell proliferation assay OVCAR-3; format: cell-based; conditions: Homo sapiens; OVCAR-3, Ovary; method of Example 5
Method: as §1, §2, §3

[20] = tested on: NCIH929; assay: Cell proliferation assay NCIH929; format: cell-based; conditions: Homo sapiens, NCI-H929; NCIH929, Myeloma; method of Example 5
Method: as §1, §2, §3

[21] = tested on: U266; assay: Cell proliferation assay U266; format: cell-based; conditions: Homo sapiens, U-266; U266, Myeloma; method of Example 5
Method: as §1, §2, §3

[22] = tested on: UH01; assay: Cell proliferation assay UH01; format: cell-based; conditions: Homo sapiens; UH01, Hodgkin's lymphoma; method of Example 5
Method: as §1, §2, §3

[23] = tested on: OPM-2 subcutaneous mouse xenograft model of multiple myeloma; assay: Inhibition of tumor growth in mouse xenograft model; format: in vivo, NOD/SCID mice (Mus Musculus)
Source text: Briefly, NOD/SCID mice γ-irradiated with ^60Co (200 rad) (12 animals/group) were inoculated subcutaneously with 8×10^6 OPM-2 cells assisted with Matrigel. Dosing according to the table below started when tumors reached an average size of ˜100 mm^3 (day 15). Dosing continued until the average size of tumors in the vehicle group reached ˜2000 mm^3 (day 31).
Animals were 7 weeks old female NOD/SCID mice (Mus Musculus), supplied by Beijing HFK Bio-Technology Co. Ltd. (Beijing, china). Body weight was approx. 16-23 g. Before commencement of treatment, all animals were weighed and tumor volumes were measured, and mice were assigned into groups using randomized block design based upon their tumor volumes.
OPM-2 tumor cells were maintained in vitro in RPMI1640 medium supplemented with 20% fetal bovine serum at 37° C. in an atmosphere of 5% CO2 in air. The tumor cells were routinely subcultured twice weekly. The cells growing in an exponential growth phase were harvested and counted for tumor inoculation.
Tumor sizes were measured three times weekly in two dimensions using a caliper, and the volume was expressed in mm^3 using the formula: V=0.5 a×b^2 where a and b were the long and short diameters of the tumor, respectively.

- EC50 [1]: > 2.5 µM
- EC50 [2]: < 0.25 µM
- EC50 [3]: < 0.25 µM
- EC50 [4]: > 2.5 µM
- EC50 [5]: 0.25 to 2.5 µM
SMILES: CCN(CCN(C)C)C(=O)CNCc1cc(C2OCC(Cc3ccccc3)CN2C(=O)C(F)(F)F)ccn1 (stereo not drawn) [Compound 90, 2-[({4-[5-benzyl-3-(trifluoroacetyl)-1,3-oxazinan-2-yl]pyridin-2-yl}methyl)amino]-N-[2-(dimethylamino)-ethyl]-N-ethylacetamide]

- EC50 [7]: > 2.5 µM
- EC50 [9]: < 0.25 µM
- EC50 [12]: > 2.5 µM
- EC50 [5]: > 2.5 µM
SMILES: CCN(CC)CCCCNCc1cc(C=O)ccn1 [Compound 107, 2-({[4-(diethylamino)-butyl]amino}-methyl)pyridine-4-carbaldehyde]
- EC50 [6]: 0.25 to 2.5 µM
- EC50 [8]: > 2.5 µM
- EC50 [10]: > 2.5 µM
- EC50 [11]: > 2.5 µM
- EC50 [13]: < 0.25 µM

- EC50 [1]: > 2.5 µM
- EC50 [14]: < 0.25 µM
- EC50 [4]: > 2.5 µM
- EC50 [19]: > 2.5 µM
SMILES: CCN(CCN(C)C)C(=O)CNCc1cc(CNC(=O)C(F)(F)F)ccn1 [Compound 25, N-[(2-{[({[2-(dimethylamino)ethyl]-(ethyl)carbamoyl}-methyl)amino]methyl}-pyrtdin-4-yl)methyl]-2,2,2-trifluoroacetamide]
- EC50 [6]: 0.25 to 2.5 µM
- EC50 [8]: > 2.5 µM
- EC50 [15]: > 2.5 µM
- EC50 [16]: < 0.25 µM
- EC50 [10]: > 2.5 µM
- EC50 [17]: > 2.5 µM
- EC50 [18]: > 2.5 µM
- EC50 [11]: 0.25 to 2.5 µM
- EC50 [20]: 0.25 to 2.5 µM

- EC50 [1]: > 2.5 µM
- EC50 [21]: > 2.5 µM
- EC50 [7]: > 2.5 µM
- EC50 [9]: < 0.25 µM
- EC50 [3]: < 0.25 µM
- EC50 [4]: > 2.5 µM
- EC50 [5]: > 2.5 µM
SMILES: CCN(CC)CCCCNCc1cc(/C=N/CCO)ccn1 [Compound 61, 2-[{[2-({[4-(diethylamino)-butyl]amino}-methyl)pyridin-4-yl]methylidene}-amino]ethan-1-ol]
- EC50 [22]: > 2.5 µM
- Tumor Volume ([23]; BID × 14 i.p. 1 mg/kg, day 15 after inoculation (start of dosing)): 101 ± 12 mm^3
- Tumor Volume ([23]; BID × 14 i.p. 1 mg/kg, day 17 after inoculation): 249 ± 32 mm^3
- Tumor Volume ([23]; BID × 14 i.p. 1 mg/kg, day 19 after inoculation): 320 ± 45 mm^3
- Tumor Volume ([23]; BID × 14 i.p. 1 mg/kg, day 21 after inoculation): 577 ± 85 mm^3
- Tumor Volume ([23]; BID × 14 i.p. 1 mg/kg, day 24 after inoculation): 951 ± 124 mm^3
- Tumor Volume ([23]; BID × 14 i.p. 1 mg/kg, day 26 after inoculation): 1259 ± 169 mm^3
- Tumor Volume ([23]; BID × 14 i.p. 1 mg/kg, day 28 after inoculation): 1800 ± 202 mm^3
- Tumor Volume ([23]; BID × 14 i.p. 1 mg/kg, day 31 after inoculation): 2864 ± 334 mm^3
- Tumor Volume ([23]; BID × 14 i.p. 10 mg/kg, day 15 after inoculation (start of dosing)): 101 ± 11 mm^3
- Tumor Volume ([23]; BID × 14 i.p. 10 mg/kg, day 17 after inoculation): 198 ± 28 mm^3
- Tumor Volume ([23]; BID × 14 i.p. 10 mg/kg, day 19 after inoculation): 276 ± 44 mm^3
- Tumor Volume ([23]; BID × 14 i.p. 10 mg/kg, day 21 after inoculation): 519 ± 67 mm^3
- Tumor Volume ([23]; BID × 14 i.p. 10 mg/kg, day 24 after inoculation): 694 ± 92 mm^3
- Tumor Volume ([23]; BID × 14 i.p. 10 mg/kg, day 26 after inoculation): 928 ± 136 mm^3
- Tumor Volume ([23]; BID × 14 i.p. 10 mg/kg, day 28 after inoculation): 1289 ± 178 mm^3
- Tumor Volume ([23]; BID × 14 i.p. 10 mg/kg, day 31 after inoculation): 1996 ± 302 mm^3
- Tumor Volume ([23]; BID × 14 i.p. 20 mg/kg, day 15 after inoculation (start of dosing)): 101 ± 12 mm^3
- Tumor Volume ([23]; BID × 14 i.p. 20 mg/kg, day 17 after inoculation): 188 ± 25 mm^3
- Tumor Volume ([23]; BID × 14 i.p. 20 mg/kg, day 19 after inoculation): 292 ± 50 mm^3
- Tumor Volume ([23]; BID × 14 i.p. 20 mg/kg, day 21 after inoculation): 440 ± 77 mm^3
- Tumor Volume ([23]; BID × 14 i.p. 20 mg/kg, day 24 after inoculation): 766 ± 143 mm^3
- Tumor Volume ([23]; BID × 14 i.p. 20 mg/kg, day 26 after inoculation): 1029 ± 196 mm^3
- Tumor Volume ([23]; BID × 14 i.p. 20 mg/kg, day 28 after inoculation): 1298 ± 236 mm^3
- Tumor Volume ([23]; BID × 14 i.p. 20 mg/kg, day 31 after inoculation): 1573 ± 261 mm^3
- EC50 [15]: > 2.5 µM
- EC50 [10]: > 2.5 µM
- EC50 [17]: > 2.5 µM
- EC50 [20]: > 2.5 µM

- EC50 [1]: > 2.5 µM
- EC50 [7]: > 2.5 µM
- EC50 [9]: 0.25 to 2.5 µM
- EC50 [3]: > 2.5 µM
- EC50 [12]: > 2.5 µM
- EC50 [4]: > 2.5 µM
- EC50 [5]: > 2.5 µM
SMILES: C(=N/C1CC1)/c1ccnc(CNCCCN2CCCC2)c1 [Compound 42, N-{[2-({[3-(pyrrolidin-1-yl)propyl]amino}-methyl)pyridin-4-yl]methylidene}-cyclopropanamine]
- EC50 [6]: > 2.5 µM
- EC50 [8]: > 2.5 µM
- EC50 [10]: > 2.5 µM
- EC50 [18]: > 2.5 µM
- EC50 [13]: < 0.25 µM
